Data from patent publication US20250205268A1, “TREATMENT OF VIRUSES WITH ANTIVIRAL NUCLEOSIDES” (priority 2021, published 2025).
Read-outs that look alike come from different tables or passages of the source.

Legend:
[1] = system: SARS-CoV-2; format: in vivo; details: for WHO Clinical Progression Scale, participants in score category 0 / WHO Clinical Progression Scale, participants in score category 1-3 / WHO Clinical Progression Scale, participants in score category 4-5 / WHO Clinical Progression Scale, participants in score category 6-9 / WHO Clinical Progression Scale, participants in score category 10: final MITT; for WHO Clinical Progression Scale, odds ratio (95% CI): proportional odds model
[2] = system: SARS-CoV-2
[3] = format: in vivo; details: nonclinical studies
[4] = system: infectious SARS-CoV-2 virus; format: in vivo
[5] = system: SARS-CoV-2 RNA; format: in vivo; details: for SARS-CoV-2 RNA titer, mean / SARS-CoV-2 RNA titer, mean change from baseline: interim
[6] = Phase 1 study
[7] = baseline RNA titer >10^6 copies/ml, Day 3
[8] = baseline RNA titer >10^6 copies/ml, Day 10
[9] = baseline RNA titer >10^6 copies/ml, Day 15
[10] = baseline RNA titer >10^6 copies/ml, Day 29
[11] = baseline RNA titer >10^6 copies/ml, EOT (Day 5)
[12] = baseline RNA titer ≤10^6 copies/ml, Day 3
[13] = baseline RNA titer ≤10^6 copies/ml, Day 10
[14] = baseline RNA titer ≤10^6 copies/ml, Day 15
[15] = baseline RNA titer ≤10^6 copies/ml, Day 29
[16] = baseline RNA titer ≤10^6 copies/ml, EOT (Day 5)

CC(C)C(=O)OC[C@H]1O[C@@H](n2ccc(NO)nc2=O)[C@H](O)[C@@H]1O [Compound A, {(2R,3S,4R,5R)-3,4-dihydroxy-5-[4-(hydroxyimino)-2-oxo-3,4-dihydropyrimidin-1 (2H)-yl]oxolan-2-yl}methyl 2-methylpropanoate]
WHO Clinical Progression Scale, participants in score category 0 ([1]; Baseline): (0.0) % | WHO Clinical Progression Scale, participants in score category 1-3 ([1]; Baseline): (100.0) % | WHO Clinical Progression Scale, participants in score category 4-5 ([1]; Baseline): (0.0) % | WHO Clinical Progression Scale, participants in score category 6-9 ([1]; Baseline): (0.0) % | WHO Clinical Progression Scale, participants in score category 10 ([1]; Baseline): (0.0) % | WHO Clinical Progression Scale, participants in score category 0 ([1]; Day 3): (0.3) % | WHO Clinical Progression Scale, participants in score category 1-3 ([1]; Day 3): (97.7) % | WHO Clinical Progression Scale, participants in score category 4-5 ([1]; Day 3): (1.6) % | WHO Clinical Progression Scale, participants in score category 6-9 ([1]; Day 3): (0.4) % | WHO Clinical Progression Scale, participants in score category 10 ([1]; Day 3): (0.0) % | WHO Clinical Progression Scale, participants in score category 0 ([1]; Day 5): (1.6) % | WHO Clinical Progression Scale, participants in score category 1-3 ([1]; Day 5): (95.1) % | WHO Clinical Progression Scale, participants in score category 4-5 ([1]; Day 5): (2.4) % | WHO Clinical Progression Scale, participants in score category 6-9 ([1]; Day 5): (0.9) % | WHO Clinical Progression Scale, participants in score category 10 ([1]; Day 5): (0.0) % | WHO Clinical Progression Scale, participants in score category 0 ([1]; Day 10): (5.9) % | WHO Clinical Progression Scale, participants in score category 1-3 ([1]; Day 10): (89.0) % | WHO Clinical Progression Scale, participants in score category 4-5 ([1]; Day 10): (4.0) % | WHO Clinical Progression Scale, participants in score category 6-9 ([1]; Day 10): (1.0) % | WHO Clinical Progression Scale, participants in score category 10 ([1]; Day 10): (0.0) % | WHO Clinical Progression Scale, participants in score category 0 ([1]; Day 15): (15.2) % | WHO Clinical Progression Scale, participants in score category 1-3 ([1]; Day 15): (81.9) % | WHO Clinical Progression Scale, participants in score category 4-5 ([1]; Day 15): (2.2) % | WHO Clinical Progression Scale, participants in score category 6-9 ([1]; Day 15): (0.6) % | WHO Clinical Progression Scale, participants in score category 10 ([1]; Day 15): (0.0) % | WHO Clinical Progression Scale, participants in score category 0 ([1]; Day 29): (48.4) % | WHO Clinical Progression Scale, participants in score category 1-3 ([1]; Day 29): (50.2) % | WHO Clinical Progression Scale, participants in score category 4-5 ([1]; Day 29): (0.9) % | WHO Clinical Progression Scale, participants in score category 6-9 ([1]; Day 29): (0.3) % | WHO Clinical Progression Scale, participants in score category 10 ([1]; Day 29): (0.2) % | WHO Clinical Progression Scale, odds ratio (95% CI) ([1]; Day 3): 1.19 (0.62, 2.30) | WHO Clinical Progression Scale, odds ratio (95% CI) ([1]; Day 5): 1.52 (0.96, 2.39) | WHO Clinical Progression Scale, odds ratio (95% CI) ([1]; Day 10): 1.58 (1.14, 2.20) | WHO Clinical Progression Scale, odds ratio (95% CI) ([1]; Day 15): 1.36 (1.03, 1.78) | WHO Clinical Progression Scale, odds ratio (95% CI) ([1]; Day 29): 1.04 (0.84, 1.29) | hematological, pancreatic, or hepatic parameters ([2]; Part 1, as a function of dose or treatment): no clinically meaningful abnormalities | dose-limiting toxicity ([2]; highest dose (800 mg), eDMC review of IA2 data): no dose-limiting toxicity was observed | SARS-CoV-2 VL compared with placebo ([2]; in vivo): reduces the SARS-CoV-2 VL compared with placebo | tolerability ([2]; non-hospitalized participants in Part 1): well-tolerated | pancreatic toxicity (pathology changes in the pancreas) [3]: No test-article related pathology changes in the pancreas | participants with serious adverse events resulting in hospitalization (400-mg group): 3.2% | participants with serious adverse events resulting in hospitalization (800-mg group): 1.8% | incidence of treatment-associated adverse events (800-mg group compared with the other groups): lowest | adverse events that led to discontinuation (Compound A groups combined): 1.4% | adverse events (all doses, similar to placebo): few, and mainly low-grade | Grade 3 or higher adverse events (combined Compound A groups): 5.0% | hematology or clinical chemistry data (during the study): no dose-related trends | Percentage of participants positive for infectious SARS-CoV-2 virus ([4]; 200 mg twice daily 5 days, Day 1): (50.0) % | Percentage of participants positive for infectious SARS-CoV-2 virus ([4]; 200 mg twice daily 5 days, Day 3): (18.2) % | Percentage of participants positive for infectious SARS-CoV-2 virus ([4]; 200 mg twice daily 5 days, Day 5): (4.5) % | Percentage of participants positive for infectious SARS-CoV-2 virus ([4]; 400 mg twice daily 5 days, Day 1): (41.9) % | Percentage of participants positive for infectious SARS-CoV-2 virus ([4]; 400 mg twice daily 5 days, Day 3): (11.6) % | Percentage of participants positive for infectious SARS-CoV-2 virus ([4]; 800 mg twice daily 5 days, Day 1): (38.5) % | reductions in viral load from baseline versus placebo ([5]; Part 2 interim analysis): significantly greater reductions in viral load from baseline at Days 3 and 5 than placebo | reductions from baseline in mean viral load versus placebo ([5]; final all-randomized analysis, days 3, 5 (end-of-treatment visit), and 10): greater reductions from baseline in mean viral load than placebo | SARS-CoV-2 RNA titer, mean ([5]; MITT, Baseline): 6.85 log^10 copies/ml | SARS-CoV-2 RNA titer, mean ([5]; MITT, Day 3): 5.82 log^10 copies/ml | SARS-CoV-2 RNA titer, mean change from baseline ([5]; MITT, Day 3): −1.04 log^10 copies/ml | SARS-CoV-2 RNA titer, mean ([5]; MITT, Day 10): 3.70 log^10 copies/ml | SARS-CoV-2 RNA titer, mean change from baseline ([5]; MITT, Day 10): −3.18 log^10 copies/ml | SARS-CoV-2 RNA titer, mean ([5]; MITT, Day 15): 3.20 log^10 copies/ml | SARS-CoV-2 RNA titer, mean change from baseline ([5]; MITT, Day 15): −3.69 log^10 copies/ml | SARS-CoV-2 RNA titer, mean ([5]; MITT, Day 29): 2.90 log^10 copies/ml | SARS-CoV-2 RNA titer, mean change from baseline ([5]; MITT, Day 29): −4.08 log^10 copies/ml | SARS-CoV-2 RNA titer, mean ([5]; MITT, EOT (Day 5)): 4.80 log^10 copies/ml | SARS-CoV-2 RNA titer, mean change from baseline ([5]; MITT, EOT (Day 5)): −2.09 log^10 copies/ml | SARS-CoV-2 RNA titer, mean ([5]; baseline RNA titer >10^6 copies/ml, Baseline): 7.71 log^10 copies/ml | SARS-CoV-2 RNA titer, mean [5, 7]: 6.56 log^10 copies/ml | SARS-CoV-2 RNA titer, mean change from baseline [5, 7]: −1.17 log^10 copies/ml | SARS-CoV-2 RNA titer, mean [5, 8]: 3.94 log^10 copies/ml | SARS-CoV-2 RNA titer, mean change from baseline [5, 8]: −3.79 log^10 copies/ml | SARS-CoV-2 RNA titer, mean [5, 9]: 3.26 log^10 copies/ml | SARS-CoV-2 RNA titer, mean change from baseline [5, 9]: −4.47 log^10 copies/ml | SARS-CoV-2 RNA titer, mean [5, 10]: 2.93 log^10 copies/ml | SARS-CoV-2 RNA titer, mean change from baseline [5, 10]: −4.87 log^10 copies/ml | SARS-CoV-2 RNA titer, mean [5, 11]: 5.25 log^10 copies/ml | SARS-CoV-2 RNA titer, mean change from baseline [5, 11]: −2.49 log^10 copies/ml | SARS-CoV-2 RNA titer, mean ([5]; baseline RNA titer ≤10^6 copies/ml, Baseline): 4.58 log^10 copies/ml | SARS-CoV-2 RNA titer, mean [5, 12]: 3.88 log^10 copies/ml | SARS-CoV-2 RNA titer, mean change from baseline [5, 12]: −0.67 log^10 copies/ml | SARS-CoV-2 RNA titer, mean [5, 13]: 3.05 log^10 copies/ml | SARS-CoV-2 RNA titer, mean change from baseline [5, 13]: −1.49 log^10 copies/ml | SARS-CoV-2 RNA titer, mean [5, 14]: 3.01 log^10 copies/ml | SARS-CoV-2 RNA titer, mean change from baseline [5, 14]: −1.51 log^10 copies/ml | SARS-CoV-2 RNA titer, mean [5, 15]: 2.81 log^10 copies/ml | SARS-CoV-2 RNA titer, mean change from baseline [5, 15]: −1.76 log^10 copies/ml | SARS-CoV-2 RNA titer, mean [5, 16]: 3.56 log^10 copies/ml | SARS-CoV-2 RNA titer, mean change from baseline [5, 16]: −1.00 log^10 copies/ml | hematological laboratory tests [6]: no clinically significant abnormalities | liver parameters ([6]; any dose): No clinically significant abnormalities in liver parameters | serum lipase ([6]; at least 3 days after last dose, not dose related): Transient elevations of serum lipase
